Experimental data from US11787835B2, “C19 scaffolds and steroids and methods of use and manufacture thereof” (Trustees of Dartmouth College, priority 2018, dated 2023).

Assays:
U251 and U87 cells [1] = assay: Growth inhibition and viable cell counts of glioblastoma cell lines; format: cell-based, human; conditions: for inhibition of glioma cell growth (IC50), fold lower concentration compared to TMZ: after 24 hours, FIG. 3A
Method: FIG. 3A-3B are line graphs depicting (A) dose dependent growth inhibition of U251 and U87 cells treated with Compound 100, Compound 101, TMZ, and vehicle control DMSO (n=4) and (B) viable cell counts of U251 and U87 cells treated with Compound 100, Compound 101, TMZ, and vehicle control DMSO determined every 24 hours for 96 hours (n=4)
(§1) To determine the biological effect of Compound 100 and Compound 101, human glioblastoma-derived cell lines U251 and U87 were treated with varying concentrations of Compound 100, Compound 101, temazolomide (TMZ; a standard of care chemotherapeutic agent), or vehicle-toxicity control, dimethylsulfoxide (DMSO) used at final volumes that were identical to those used to attain all concentrations tested of Compound 100 and Compound 101.

U251 and U87 cells [2] = assay: Annexin V/7-AAD apoptosis FACS analysis; format: cell-based, human; conditions: 24 hours, Annexin V and 7-AAD, FIG. 3C
Method: FIG. 3C is a flow cytometric analysis of U251 and U87 co-stained with Annexin V-FITC/7-AAD after treatment with Compound 100, Compound 101, TMZ, and vehicle control DMSO (n=4).
(§2) In order to elucidate the mechanism of this cell death, glioblastoma cells treated for 24 hours with Compound 100, Compound 101, TMZ, or DMSO control were analyzed for early and late apoptosis markers (Annexin V and 7-Aminoactinomycin D) by FACS analyses. […] Additionally, over a period of five days, morphological changes in U251 and U87 cells treated with Compound 100 and Compound 101 were tracked using the Incucyte live cell imaging system.

ERβ = ERβ (Homo sapiens, UniProt Q92731); assay: ERβ agonist assay (functional activity at estrogen receptors); format: cell-based
Sequence of ERβ (Q92731 whole entry, species assumed): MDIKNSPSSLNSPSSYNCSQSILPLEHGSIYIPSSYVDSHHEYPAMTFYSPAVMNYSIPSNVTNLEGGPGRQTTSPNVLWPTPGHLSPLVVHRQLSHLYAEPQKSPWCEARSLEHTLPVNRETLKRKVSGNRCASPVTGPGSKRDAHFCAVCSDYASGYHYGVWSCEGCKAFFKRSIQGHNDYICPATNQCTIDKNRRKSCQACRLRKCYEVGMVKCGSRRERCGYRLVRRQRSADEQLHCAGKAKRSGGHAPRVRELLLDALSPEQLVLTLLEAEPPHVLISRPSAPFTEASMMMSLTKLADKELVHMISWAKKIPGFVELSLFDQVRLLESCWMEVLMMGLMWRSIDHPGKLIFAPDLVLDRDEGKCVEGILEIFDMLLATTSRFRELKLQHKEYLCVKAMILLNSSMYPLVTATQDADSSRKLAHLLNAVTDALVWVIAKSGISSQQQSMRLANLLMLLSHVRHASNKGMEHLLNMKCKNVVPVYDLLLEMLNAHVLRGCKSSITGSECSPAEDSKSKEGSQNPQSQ
Method: FIG. 1 is a set of line graphs showing the results of ERβ and ERα agonist assays for Compounds 100 and 101.
Compounds 100 and 101 were evaluated for their functional activity at estrogen receptors (both ERα and ERβ). 17β-estradiol was used as a control, as it is appreciated to be a potent agonist of both ERα and ERβ.

[3] = tested on: DU-145 prostate cancer cells (endogenous ERβ); assay: Alkaline phosphatase activity in DU-145 prostate cancer cells; format: cell-based, human; conditions: DU-145 cells, 24 hours, 5 μM, FIG. 2
Method: FIG. 2 is a bar graph showing alkaline phosphatase activity in human DU-145 prostate cancer cells (17β-estradiol, Compound 100, and Compound 101 were evaluated at 5 μM).
The DU-145 prostate cancer cell line only expresses ERβ and can be used as a model to examine the activation of ERβ in the absence of any potential confounding signal driven by ERα. Alkaline phosphatase (ALP) expression is induced in an ER-dependent manner and has been used to characterize the activity of synthetic ER agonists and antagonists.
In order to examine the ability of Compound 100 and Compound 101 to activate ERβ in the context of a cell line expressing endogenous ERβ, DU-145 cells were treated for 24 hours with either 17β-estradiol, Compound 100, or Compound 101 and ALP activity derived from the cells was examined.

glioblastoma cell lines = assay: MTT cell viability assay in glioblastoma cell lines; format: cell-based, human
Method: as §1

U251 and U87 cells [4] = assay: Incucyte live cell imaging of morphological changes; format: cell-based, human; conditions: over five days, FIG. 3D
Method: FIG. 3D depicts phase-contrast images using Incucyte for live cell tracking of U251 and U87 cells in response to treatment with Compound 100, Compound 101, TMZ, and vehicle control DMSO. Live cells were tracked and imaged for 96 hours (data not shown). Scale bar=300 μm. All data in FIG. 3A-3D are representative of four independent experiments and four replicates of each treatment condition were analyzed per experiment.
as §2

established tumors = assay: In vivo growth of established tumors; conditions: initial studies
Source text: In comparison to 17β-estradiol, Compound 100 and Compound 101 have a unique profile for selective agonism of ERβ (FIG. 1).

[5] = tested on: primary glioma tumor cells from patients; assay: Growth of primary glioma tumor cells from patients; format: cell-based, human
Source text: The present disclosure also relates to the use of such compounds as biologically active (e.g., therapeutic) components in, for example, pharmaceutical compositions and/or directly as human and/or animal therapeutics and medicines. In certain embodiments, the compounds are ERβ selective agonists and/or may be used to treat or prevent conditions, disorders, or diseases such as cancer (e.g., breast cancer, prostate cancer, ovarian cancer, acute myeloid leukemia, and glioma, among others) or neurodegeneration. Currently there is no widely applicable cure for primary brain tumors.

Row | Compound | inhibition of glioma cell growth (IC50), fold lower concentration compared to TMZ (U251 and U87 cells [1]) [fold] | induction of apoptosis, fold higher than TMZ or DMSO controls (U251 and U87 cells [2]) [fold] | type of ERβ agonism (ERβ) | induction of ALP activity [3] | viability and proliferation of glioblastoma lines (U251 and U87 cells [1]; assessed every 24 hours for 5 days, compared to TMZ or DMSO, FIG. 3B) | growth of glioblastoma cell lines (MTT) (glioblastoma cell lines) | morphological changes (adherence, cellular integrity) (U251 and U87 cells [4]) | growth of established tumors in vivo (established tumors) | growth of primary glioma tumor cells from patients [5]
1 | C[C@@]12CC[C@]3(C)C(=C1C[C@H](O)C2)CCc1cc(O)ccc13 [Compound 101, (9R,13S,16R)-9,13-dimethyl-7,9,11,12,13,15,16,17-octahydro-6H-cyclopenta[a]phenanthrene-3,16-diol] | 50 | 7 | – | – | – | – | – | – | –
2 | C[C@]12CC[C@@]3(C)C(=C1C[C@@H](O)C2)CCc1cc(O)ccc13 [Compound 100, (9S,13R,16S)-9,13-dimethyl-7,9,11,12,13,15,16,17-octahydro-6H-cyclopenta[α]phenanthrene-3,16-diol] | 50 | 7 | full agonist | effective at inducing ALP to levels comparable to 17β-estradiol | reduced viability and the resulting proliferation of glioblastoma lines in a dose dependent manner | significantly reduced the growth of glioblastoma cell lines in a dose-dependent manner | Increased loss of adherence and cellular integrity | reduces the growth of established tumors | inhibit growth
3 | C[C@]12CC[C@@H]3c4ccc(O)cc4CC[C@H]3[C@@H]1CC[C@@H]2O [17β-estradiol, reference compound] | – | – | – | effective in inducing ALP activity | – | – | – | – | –
